Experimental data taken from patent US4010264A, “7-[3-Substituted isoxazol-5-yl]-acetamido-cephalosporanic acids and their anti-bacterial use” (Koninklijke Nederlandsche Gist-en Spiritusfabriek N.V., priority 1970, dated 1977).
Converted amounts (≈) assume the structure as drawn. Where a name gives a salt, the structure may show the parent alone. Read-outs that look alike come from different tables or passages of the source.

Experiments:
[1] = test system: Bacillus subtilis ATCC 6633; experiment: MIC, agar serial dilution test; assay type: cell-based
[2] = test system: Staphylococcus aureus A 321; experiment: in vivo infection test in mice; conditions: A321, in Mus musculus
[3] = test system: Klebsiella pneumoniae A809; experiment: MIC, agar serial dilution test; assay type: cell-based
[4] = test system: Staphylococcus aureus A355 (penicillinase-producing); experiment: MIC, agar serial dilution test; conditions: 24 h
[5] = test system: Staphylococcus aureus A 321; experiment: prophylactic experiment against an infection in mice; assay type: in vivo, female mice (Swiss)
Source text: B. Activity of the compound of example III in a prophylactic experiment against an infection with Staphylococcus aureus A 321. […] Administered doses: Tested compound dissolved in physiological NaCl-solution. Group A: one dose administered four hours before the intraperitoneal infection Group B: one dose administered two hours before the intraperitoneal infection.

[6] = test system: Staphylococcus aureus A321; experiment: MIC, agar serial dilution test; assay type: cell-based
[7] = test system: Pasteurella multocida A723; experiment: MIC, agar serial dilution test; assay type: cell-based
[8] = test system: Streptococcus faecalis L 80; experiment: MIC, agar serial dilution test; assay type: cell-based; conditions: Enterococcus faecalis
[9] = test system: Staphylococcus aureus A55; experiment: MIC, agar serial dilution test; assay type: cell-based
[10] = test system: Diplococcus pneumoniae L 54; experiment: MIC, agar serial dilution test; assay type: cell-based; conditions: Streptococcus pneumoniae
[11] = test system: Streptococcus haemolyticus A266; experiment: MIC, agar serial dilution test; assay type: cell-based
in vivo [12] = experiment: in vivo; set-up: species or system rabbits; conditions: rabbit, im, 50 mg/kg; for blood level: 4 h
Source text: C. Serum levels of the tested compound and dicloxacillin.

[13] = test system: Staphylococcus aureus L160a (penicillinase-producing); experiment: MIC, agar serial dilution test; conditions: 24 h
[14] = test system: Staphylococcus aureus A 2001; experiment: in vivo infection test in mice; conditions: A2001, in Mus musculus
serum protein = experiment: binding to serum protein; assay type: in vitro ADME
[15] = test system: Staphylococcus aureus A 2000; experiment: in vivo infection test in mice; conditions: A2000, in Mus musculus
Brucella melitensis A488 = experiment: microbe, parasite or virus in culture; assay type: cell-based; conditions: A488, 24 h
[16] = percentages of bound serum by ultrafiltration and dialysis; assay type: in vitro ADME; conditions: read-out: percentage of bound serum (converted)
[17] = test system: Staphylococcus aureus A 2001; experiment: protection test in mice, Staphylococcus aureus; conditions: for ED50: Staphylococcus aureus, A2001, in Mus musculus, sc, 168 h
[18] = blood (serum) contents after intramuscular administration in rabbits; assay type: in vivo, rabbits (Nieuw Zeelander); conditions: rabbit, im, 50 mg/kg intramuscular, average, read-out: Serum level; for concentration at 0.5 h: after 1/2 hr.; for concentration at 0.25 h: after 1/4 hr.; for concentration at 1 h: after 1 hr.; for concentration at 2 h: after 2 hrs.; for concentration at 4 h: after 4 hrs.
Description: (§1) c. […] The rabbits were provided with "Cunicon" and water ad libitum. Each test group consisted of 3 rabbits. The dose was 50 mg/kg using water as the vehicle. […] The contents of the compound in the samples were determined microbiologically (only microbiologically detected amounts, i.e. anti-bacterially active concentrations only have been indicated).

Escherichia coli 65161 = experiment: protection test in mice, Escherichia coli; assay type: in vivo, female mice (Swiss SPF); conditions: for ED50: ip, 168 h, Escherichia coli 65161 i.p., method of administration intraperitoneal
[19] = secretion of compound in urine after intramuscular administration in rabbits; assay type: in vivo, rabbits (Nieuw Zeelander); conditions: rabbit, im, 50 mg/kg intramuscular, average, read-out: Secretion of compound in urine in % of the administered dose; for dose excreted at 6 h: after 6 hrs.; for dose excreted at 27 h: after 27 hrs.
Description: as §1

in vivo [20] = conditions: mouse, ip
[21] = test system: Salmonella typhi murium R 172; experiment: in vivo infection test in mice; conditions: Salmonella enterica, in Mus musculus
test organisms = experiment: M.I.C. comparison with dicloxacillin; assay type: cell-based; conditions: compared with dicloxacillin
Description: Peak blood levels of the two drugs were reached after 1 hour with the tested compound giving levels of 5.4 μg/ml and dicloxacillin 27 μg/ml. After 4 hours, these levels were 2.2 μg/ml and 7.1 μg/ml respectively. […] However, the M.I.C. values for the tested compound were approximately 5 - 10 times less so that the overall result was better and this was reflected in the in vivo results.

binding to serum protein = assay type: in vitro ADME; conditions: serum protein; read-out: extent bound to serum protein
Proteus mirabilis O.T. = experiment: in vivo infection test in mice; conditions: in Mus musculus
[22] = test system: Pseudomonas aeruginosa A 1058; experiment: in vivo infection test in mice; conditions: A1058, in Mus musculus
[23] = ATCC6633, Bacillus subtilis ATCC 6633, 24 hours at 37° C, read-out: MIC
[24] = Klebsiella pneumoniae A809, 24 hours at 37° C, read-out: MIC
[25] = A321, ip, 2 h, Group B: one dose two hours before i.p. infection, administration i.p.
[26] = A321, ip, 4 h, Group A: one dose four hours before i.p. infection, administration i.p.
[27] = A321, po, 2 h, Group B: one dose two hours before i.p. infection, administration per os
[28] = A321, po, 4 h, Group A: one dose four hours before i.p. infection, administration per os
[29] = Staphylococcus aureus A321, 24 hours at 37° C, read-out: MIC
[30] = Pasteurella multocida A723, 24 hours at 37° C, read-out: MIC
[31] = L80, Streptococcus faecalis L 80, 24 hours at 37° C, read-out: MIC
[32] = Staphylococcus aureus A55, 24 hours at 37° C, read-out: MIC
[33] = L54, Diplococcus pneumoniae L 54, 24 hours at 37° C, read-out: MIC
[34] = Streptococcus haemolyticus A266, 24 hours at 37° C, read-out: MIC

Cc1onc(-c2c(Cl)cccc2Cl)c1C(=O)N[C@@H]1C(=O)N2[C@@H]1SC(C)(C)[C@@H]2C(=O)O [Dicloxacillin, reference compound]
MIC [1, 23]: 0.12 µg/mL (≈ 0.255 µM)
ED50 ([2]; po): 92.6 mg/kg
ED50 ([2]; sc): 126 mg/kg
MIC [3, 24]: 25 µg/mL (≈ 53.2 µM)
MIC [4]: 0.5 µg/mL (≈ 1.06 µM)
ED50 [5, 25]: 46.5 to 100 mg/kg
ED50 [5, 26]: < 21.5 mg/kg
ED50 [5, 27]: 215 to 465 mg/kg
ED50 [5, 28]: 46.5 to 100 mg/kg
MIC [6, 29]: 0.12 µg/mL (≈ 0.255 µM)
MIC [7, 30]: 6 µg/mL (≈ 12.8 µM)
MIC [8, 31]: 12.5 µg/mL (≈ 26.6 µM)
MIC [9, 32]: 0.06 µg/mL (≈ 0.128 µM)
MIC [10, 33]: 0.5 µg/mL (≈ 1.06 µM)
MIC [11, 34]: 0.06 µg/mL (≈ 0.128 µM)
Cmax at 1 h (in vivo [12]): 27000 ng/mL
Tmax (in vivo [12]): 1 h
concentration at 1 h (in vivo [12]): 27000 ng/mL
concentration at 2 h (in vivo [12]): 18800 ng/mL
concentration at 4 h (in vivo [12]): 7100 ng/mL
blood level (in vivo [12]): 7100 ng/mL
MIC [13]: 0.25 µg/mL (≈ 0.532 µM)
ED50 ([14]; ip): 1.71 mg/kg
ED50 ([14]; po): 110 mg/kg
ED50 ([14]; sc): 133 mg/kg
binding to serum protein (in words) (serum protein; serum protein): almost completely bound to serum protein
ED50 ([15]; ip): 5.84 mg/kg
ED50 ([15]; po): 92.6 mg/kg
ED50 ([15]; sc): 92.6 mg/kg
MIC (Brucella melitensis A488): > 100 µg/mL

CC(=O)OCC1=C(C(=O)O)N2C(=O)C(NC(=O)Cc3cc(C)no3)C2SC1 (stereo not drawn) [Example XXII, 7-{[3-methyl-isoxazol-5-yl]acetamido}cephalosporanic acid]
MIC [1, 23]: 0.06 µg/mL (≈ 0.152 µM)
MIC [3, 24]: 3 µg/mL (≈ 7.59 µM)
MIC [4]: 1 µg/mL (≈ 2.53 µM)
MIC [6, 29]: 0.5 µg/mL (≈ 1.26 µM)
fraction unbound ([16]; dialysis): 0.72
fraction unbound ([16]; ultrafiltration): 0.67
MIC [7, 30]: 3 µg/mL (≈ 7.59 µM)
MIC [8, 31]: 25 µg/mL (≈ 63.2 µM)
MIC [9, 32]: 0.5 µg/mL (≈ 1.26 µM)
MIC [10, 33]: 0.5 µg/mL (≈ 1.26 µM)
ED50 [17]: 23 mg/kg
Potency Ratio ([17]; vs Cephalotin, S. aureus A 2001, subcutaneously, limits (0.73-4.92) printed): 1.90
concentration at 0.5 h [18]: 45000 ng/mL
concentration at 0.25 h [18]: 57500 ng/mL
concentration at 1 h [18]: 12300 ng/mL
concentration at 2 h [18]: 1700 ng/mL
concentration at 4 h [18]: < 1000 ng/mL
MIC [11, 34]: 0.12 µg/mL (≈ 0.303 µM)
ED50 (Escherichia coli 65161): 100 mg/kg
Potency Ratio (Escherichia coli 65161; vs Cephalotin, E. coli 65161, intraperitoneal, limits (0.52-2.53) printed): 1.15
MIC [13]: 1 µg/mL (≈ 2.53 µM)
MIC (Brucella melitensis A488): 12.5 µg/mL (≈ 31.6 µM)
dose excreted at 6 h [19]: 41.4%
dose excreted at 27 h [19]: 46.9%
LD50 (in vivo [20]): > 8000 mg/kg

CC(=O)OCC1=C(C(=O)O)N2C(=O)C(NC(=O)Cc3cc(-c4c(Cl)cccc4Cl)no3)C2SC1 (stereo not drawn) [Example III, Sodium salt of 7-{[3-(2,6-dichlorophenyl)-isoxazol-5-yl]acetamido}cephalosporanic acid]
MIC [1, 23]: ~0.007 µg/mL
ED50 ([21]; ip): ~200 mg/kg
ED50 ([2]; po): 61.9 mg/kg
ED50 ([2]; sc): 5.11 mg/kg
MIC [3, 24]: 12.5 µg/mL
MIC [4]: 0.12 µg/mL
ED50 [5, 25]: < 21.5 mg/kg
ED50 [5, 26]: 21.5 to 46.5 mg/kg
ED50 [5, 27]: < 21.5 mg/kg
ED50 [5, 28]: ~465 mg/kg
MIC [6, 29]: ~0.007 µg/mL
MIC [7, 30]: 1 µg/mL
MIC [8, 31]: 0.5 µg/mL
MIC [9, 32]: 0.015 µg/mL
MIC [10, 33]: 0.007 µg/mL
MIC [11, 34]: ~0.007 µg/mL
M.I.C. values, times less than dicloxacillin (test organisms): 5 - 10 times
Cmax at 1 h (in vivo [12]): 5400 ng/mL
Tmax (in vivo [12]): 1 h
concentration at 1 h (in vivo [12]): 5400 ng/mL
concentration at 4 h (in vivo [12]): 2200 ng/mL
blood level (in vivo [12]): 2200 ng/mL
MIC [13]: 0.06 µg/mL
ED50 ([14]; ip): 2.87 mg/kg
ED50 ([14]; po): ~200 mg/kg
ED50 ([14]; sc): > 215 mg/kg
amount of free drug in the serum compared with dicloxacillin (serum protein; 50 mg/kg intramuscular, rabbits): of the same order
fraction bound to serum protein (binding to serum protein): ~0.5
ED50 ([15]; ip): 1.78 mg/kg
ED50 ([15]; po): > 215 mg/kg
ED50 ([15]; sc): 75 mg/kg
ED50 (Proteus mirabilis O.T.; ip): ~200 mg/kg
MIC (Brucella melitensis A488): 1 µg/mL
ED50 ([22]; ip): > 215 mg/kg

CC(=O)OCC1=C(C(=O)O)N2C(=O)[C@@H](NC(=O)Cc3cccs3)[C@H]2SC1 [Cephalotin, reference compound]
MIC ([1]; Bacillus subtilis, ATCC6633, 24 h): 0.03 µg/mL (≈ 0.0757 µM)
ED50 ([21]; ip): 79.4 mg/kg
ED50 ([21]; sc): ~200 mg/kg
ED50 ([2]; ip): 1.9 mg/kg
ED50 ([2]; po): 14.7 mg/kg
ED50 ([2]; sc): 16.2 mg/kg
MIC ([3]; Klebsiella pneumoniae, A809, 24 h): 0.5 µg/mL (≈ 1.26 µM)
MIC [4]: 1 µg/mL (≈ 2.52 µM)
MIC ([6]; Staphylococcus aureus, A321, 24 h): 0.25 µg/mL (≈ 0.631 µM)
fraction unbound ([16]; dialysis): ~0.3
fraction unbound ([16]; ultrafiltration): ~0.3
MIC ([7]; Pasteurella multocida, A723, 24 h): 0.25 µg/mL (≈ 0.631 µM)
MIC ([8]; L80, 24 h): 25 µg/mL (≈ 63.1 µM)
MIC ([9]; Staphylococcus aureus, A55, 24 h): 0.25 µg/mL (≈ 0.631 µM)
MIC ([10]; L54, 24 h): 0.25 µg/mL (≈ 0.631 µM)
ED50 [17]: 43 mg/kg
concentration at 0.5 h [18]: 33900 ng/mL
concentration at 0.25 h [18]: 73800 ng/mL
concentration at 1 h [18]: 8500 ng/mL
concentration at 2 h [18]: < 1100 ng/mL
concentration at 4 h [18]: < 1000 ng/mL
MIC ([11]; Streptococcus, A266, 24 h): 0.06 µg/mL (≈ 0.151 µM)
ED50 (Escherichia coli 65161): 115 mg/kg
MIC [13]: 1 µg/mL (≈ 2.52 µM)
ED50 ([14]; ip): 27.1 mg/kg
ED50 ([14]; po): > 68.1 mg/kg
ED50 ([15]; ip): 20 mg/kg
ED50 ([15]; po): 147 mg/kg
ED50 ([15]; sc): 110 mg/kg
ED50 (Proteus mirabilis O.T.; ip): 79.4 mg/kg
ED50 (Proteus mirabilis O.T.; sc): 68.1 mg/kg
MIC (Brucella melitensis A488): 6 µg/mL (≈ 15.1 µM)
ED50 ([22]; ip): > 215 mg/kg
ED50 ([22]; sc): > 215 mg/kg
dose excreted at 6 h [19]: 22.2%
dose excreted at 27 h [19]: 26.9%
LD50 (in vivo [20]): 6000 to 8000 mg/kg
